These results are taken from article doi:10.1101/2024.08.19.608619, “Discovery of potent SARS-CoV-2 nsp3 macrodomain inhibitors uncovers lack of translation to cellular antiviral response” (bioRxiv, 2024).

Each structure is given as a SMILES string. Like-named read-outs stand apart in the source and are kept apart here.

Experiment [1] concerns the target T1, SARS-CoV-2 nsp3-mac1 (Severe acute respiratory syndrome coronavirus 2, UniProt P0DTD1). Briefly: biochemical. As to conditions: SARS-CoV-2 nsp3 macrodomain TR-FRET single point. In kind it is biochemical. Background: TR-FRET usually uses a lanthanide donor and a delayed reading to cut background.
Experiment [2] has as its target T1, SARS-CoV-2 nsp3-mac1. Briefly: biochemical. On the set-up: SARS-CoV-2 nsp3 macrodomain TR-FRET single point, per cent inhibition, n=2.
Where [3] appears, read: read-out: perc_inhibition_mean, batch_name=ASAP-0000392-001.
[4] abbreviates: read-out: perc_inhibition_mean, batch_name=ASAP-0000393-001.
Setting [5] is: read-out: perc_inhibition_mean, batch_name=ASAP-0000394-001.
Setting [6] is: read-out: perc_inhibition_mean, batch_name=ASAP-0000395-001.
The mark [7] stands for this setting: read-out: perc_inhibition_mean, batch_name=ASAP-0000396-001.
[8] abbreviates: read-out: perc_inhibition_mean, batch_name=ASAP-0000397-001.
The mark [9] stands for this setting: read-out: perc_inhibition_mean, batch_name=ASAP-0000398-001.
Where [10] appears, read: read-out: perc_inhibition_mean, batch_name=ASAP-0000399-001.
Where [11] appears, read: read-out: perc_inhibition_mean, batch_name=ASAP-0000400-001.
The mark [12] stands for this setting: read-out: perc_inhibition_mean, batch_name=ASAP-0000401-001.
Setting [13] is: read-out: perc_inhibition_mean, batch_name=ASAP-0000402-001.
Where [14] appears, read: read-out: perc_inhibition_mean, batch_name=ASAP-0000403-001.
Where [15] appears, read: read-out: perc_inhibition_mean, batch_name=ASAP-0000404-001.
Where [16] appears, read: read-out: perc_inhibition_mean, batch_name=ASAP-0000405-001.

With `CN1CCC[C@H](NC(=O)c2cnn3ccc(C4CCN(C(=O)c5ccccc5)CC4)cc23)C1` [ASAP-0000392], the perc_inhibition_mean in experiment [1] (concentration 49.75 uM) is reported as -6.989%. Moreover, the perc_inhibition_mean in experiment [1] (concentration 99.5 uM) is reported as -5.439%. In addition, in experiment [2] (setting [3]), the inhibition at 49.75 µM was -6.99% and the inhibition at 99.5 µM was -5.44%.

On to `Cc1[nH]cnc1C(=O)N1CCC(c2ccn3ncc(C(=O)N4CCCCC4)c3c2)CC1` [ASAP-0000393], for which, in experiment [1] (concentration 49.75 uM), the perc_inhibition_mean is on record as 16.419%. In addition, the perc_inhibition_mean in experiment [1] (concentration 99.5 uM) stood at 32.041%. Further, in experiment [2] (setting [4]), the inhibition at 49.75 µM was 16.4% and the inhibition at 99.5 µM came to 32%.

`O=C(CCN(Cc1cccc(Cl)c1)C(=O)[C@H]1CCOC1)N1CCNCC1` [ASAP-0000394]: the perc_inhibition_mean in experiment [1] (concentration 49.75 uM) was 4.078%. Also, the perc_inhibition_mean in experiment [1] (concentration 99.5 uM) is reported as -3.965%. In experiment [2] (setting [5]), the inhibition at 49.75 µM was 4.08% and the inhibition at 99.5 µM was -3.96%.

Consider `Cc1[nH]nc(C(=O)N2CCC(c3ccn4ncc(C(=O)N5CCCCC5)c4c3)CC2)c1C` [ASAP-0000395], for which the perc_inhibition_mean in experiment [1] (concentration 49.75 uM) was determined as 18.038%. Further, the perc_inhibition_mean in experiment [1] (concentration 99.5 uM) came to 33.801%. In experiment [2] (setting [6]), the inhibition at 49.75 µM is 18% and the inhibition at 99.5 µM turned out to be 33.8%.

As for `O=C(c1ccccc1)N1CCC(c2ccn3ncc(C(=O)N4CCCC[C@H](O)C4)c3c2)CC1` [ASAP-0000396], the perc_inhibition_mean in experiment [1] (concentration 49.75 uM) is recorded as 17.833%. Moreover, the perc_inhibition_mean in experiment [1] (concentration 99.5 uM) turned out to be 29.785%. Also, in experiment [2] (setting [7]), the inhibition at 49.75 µM is 17.8% and the inhibition at 99.5 µM was found to be 29.8%.

Turning to `O=C(CCN(Cc1cccc(Cl)c1)C(=O)c1ncccc1Cl)N1CCNCC1` [ASAP-0000397], the perc_inhibition_mean in experiment [1] (concentration 49.75 uM) came out at 2.753%. Further, the perc_inhibition_mean in experiment [1] (concentration 99.5 uM) is 7.518%. For the same compound, in experiment [2] (setting [8]), the inhibition at 49.75 µM turned out to be 2.75% and the inhibition at 99.5 µM was 7.52%.

On to `C[C@@]1(C(N)=O)CCCN1C(=O)c1cnn2ccc(C3CCN(C(=O)c4ccccc4)CC3)cc12` [ASAP-0000398], for which the perc_inhibition_mean in experiment [1] (concentration 49.75 uM) is on record as -8.039%. Also, the perc_inhibition_mean in experiment [1] (concentration 99.5 uM) turned out to be 10.386%. Moreover, in experiment [2] (setting [9]), the inhibition at 49.75 µM was -8.04% and the inhibition at 99.5 µM was 10.4%.

Turning to `O=C(N[C@@H]1COCC[C@H]1O)c1cnn2ccc(C3CCN(C(=O)c4ccccc4)CC3)cc12` [ASAP-0000399], the perc_inhibition_mean in experiment [1] (concentration 49.75 uM) was -5.013%; in experiment [1] (concentration 99.5 uM), -4.477%. In addition, the inhibition at 49.75 µM in experiment [2] (setting [10]) is -5.01%. Moreover, the inhibition at 99.5 µM in experiment [2] (setting [10]) was -4.48%.

With `Cc1cc(CNC(=O)c2cnn3ccc(C4CCN(C(=O)c5ccccc5)CC4)cc23)n(C)n1` [ASAP-0000400], the perc_inhibition_mean in experiment [1] (concentration 49.75 uM) is recorded as -5.508%. Moreover, in experiment [1] (concentration 99.5 uM), the perc_inhibition_mean is -8.125%. In experiment [2] (setting [11]), the inhibition at 49.75 µM was -5.51% and the inhibition at 99.5 µM is -8.12%.

Take `O=C(CCN(Cc1cccc(Cl)c1)C(=O)C1CCC(O)CC1)N1CCNCC1` (centres unmarked) [ASAP-0000401]: the perc_inhibition_mean in experiment [1] (concentration 49.75 uM) is listed as -4.315%. In experiment [1] (concentration 99.5 uM), the perc_inhibition_mean stood at 0.465%. Also, in experiment [2] (setting [12]), the inhibition at 49.75 µM is -4.32% and the inhibition at 99.5 µM came to 0.465%.

On to `O=C(c1ccnc(S)c1)N1CCC(c2ccn3ncc(C(=O)N4CCCCC4)c3c2)CC1` [ASAP-0000402], for which the perc_inhibition_mean in experiment [1] (concentration 49.75 uM) was found to be 20.252%. The perc_inhibition_mean in experiment [1] (concentration 99.5 uM) was found to be 35.496%. Also, in experiment [2] (setting [13]), the inhibition at 49.75 µM was 20.3% and the inhibition at 99.5 µM was 35.5%.

For `O=C1CCN(C(=O)c2cnn3ccc(C4CCN(C(=O)c5ccccc5)CC4)cc23)CCN1` [ASAP-0000403], in experiment [1] (concentration 49.75 uM), the perc_inhibition_mean was -2.402%. Further, in experiment [1] (concentration 99.5 uM), the perc_inhibition_mean is -7.808%. In experiment [2] (setting [14]), the inhibition at 49.75 µM was -2.4% and the inhibition at 99.5 µM was -7.81%.

On to `O=C(c1ccccc1)N1CCC(c2ccn3ncc(C(=O)N4CCn5ncnc5C4)c3c2)CC1` [ASAP-0000404], for which the perc_inhibition_mean in experiment [1] (concentration 49.75 uM) is -3.769%. Also, in experiment [1] (concentration 99.5 uM), the perc_inhibition_mean was -3.519%. In experiment [2] (setting [15]), the inhibition at 49.75 µM is -3.77% and the inhibition at 99.5 µM was -3.52%.

Consider `O=C(c1ccncc1)N1CCC(c2ccn3ncc(C(=O)N4CCCCC4)c3c2)CC1` [ASAP-0000405], for which the perc_inhibition_mean is listed as 10.851% in experiment [1] (concentration 49.75 uM) and 26.497% in experiment [1] (concentration 99.5 uM). Also, the inhibition at 49.75 µM in experiment [2] (setting [16]) was determined as 10.9%. The inhibition at 99.5 µM in experiment [2] (setting [16]) was 26.5%.
